Assay results: PMC10033663, “Acute pharmacological profile of 2C-B-Fly-NBOMe in male Wistar rats—pharmacokinetics, effects on behaviour and thermoregulation” (Frontiers in Pharmacology, 2023)
“Also recorded” adds a separate entry of the source.

What was measured:
[1] = test system: 5-HT2A receptor; design: method as in Ettrup et al., 2011; settings: GF-62 cells; among the examined NBOMes; ref Ettrup et al., 2011; cited from earlier work
[2] = test system: 5-HT2A receptor; design: method as in Ettrup et al., 2011; settings: among the examined NBOMes; ref Ettrup et al., 2011; cited from earlier work
[3] = test system: male Wistar rats; assay: Thermoregulation (rectal temperature); assay type: in vivo; settings: 5 mg/kg s. c.
Procedure: For the assessment of rectal temperature changes, rats were housed individually or in groups of five per cage. They were treated with 2C-B-Fly-NBOMe (5 mg/kg) or ctrl solution s. c. at 9:00 h. During the measurements, each rat was briefly immobilized in a plexiglass tube and then returned to its home cage. In total, 14 measurements were performed: […] for setting the baseline temperature, and then 4 subsequent 30 min measurements (09:30–11:00 h) and 6 hourly measurements (12:00–17:00 h).
Data from thermoregulatory experiments were analysed using 2 × 2 × 14 mixed factorial design with drug treatment (2C-B-Fly-NBOMe at 5 mg/kg or ctrl) and home cage conditions (individually and group-housed animals) as between-subjects factors and time (14 measurements) as a within-subjects factor. The baseline temperatures of animals were compared in the same manner.

[4] = ref Richter et al. (2020); cited from earlier work
[5] = test system: male Wistar rats; assay: Prepulse inhibition (PPI) of acoustic startle response (ASR); assay type: in vivo
Procedure: The effect of 2C-B-Fly-NBOMe on sensorimotor gating was evaluated by a PPI of ASR test. Two identical startle chambers (SR-LAB, San Diego Instruments, California) were used, each containing a sound-proof, evenly lit and ventilated enclosure with a plexiglass stabilimeter (8.7 cm inner diameter), a piezoelectric accelerometer for detecting amplitudes of the ASR, and a high-frequency loudspeaker producing acoustic stimuli. Amplitudes of the ASR were digitized for subsequent analysis. The experimental design was based on our previous studies ([Štefková et al., 2017]; [Šíchová et al., 2018]). Two days before the experiment, the animals were habituated to the startle chambers with a background white noise (75 dB) for 5 min, followed by six presentations of pulse-alone stimuli (125 dB, 40 ms) with pseudorandomized inter-stimulus intervals. […]
Habituation was calculated by the percentage reduction in the ASR from the initial six baseline trials to the final six trials. PPI was calculated as [100 - (mean response for the prepulse - pulse trial/startle response for the single pulse trials) × 100]. […]
Locomotor activity in OFT (mean trajectory length across 5 min blocks) was evaluated using a 2 × 4 × 6 mixed factorial ANOVA with temporal testing onset (15 or 60 min) and drug treatment (2C-B-Fly-NBOMe 0.2, 1, or 5 mg/kg or ctrl) as between-subjects factors, and time blocks (6 × 5 min intervals) as a within-subjects factor. Spatial distribution of animal movement in OFT (thigmotaxis and T center) and PPI parameters (habituation, ASR and % of PPI) were each analysed using a 2 × 4 factorial ANOVA with temporal testing onset (15 or 60 min) and drug treatment (2C-B-Fly-NBOMe 0.2, 1, or 5 mg/kg or ctrl) as between-subjects factors.

SMILES: COc1ccccc1CNCCc1c2c(c(Br)c3c1OCC3)OCC2 [2C-B-Fly-NBOMe]
- binding affinity to 5-HT2A receptor [1]: highest binding affinity
- intrinsic activity [2]: the lowest
- trend of hypothermic reaction in group-housed animals ([3]; animals housed in groups): not in animals housed in groups
- hypothermic trend in individually housed animals ([3]; individually housed, first 90 min after application): the statistical difference was not significant
- effect of the treatment on body temperature (ANOVA) ([3]; p < 0.05): significant effect of the treatment
- number of phase I metabolites [4]: five
- number of phase II metabolites [4]: one
- percentage of PPI ([5]; 0.2, 1 and 5 mg/kg s. c., ANOVA treatment factor): not by treatment
- Habituation of ASR ([5]; 0.2, 1 and 5 mg/kg s. c., p < 0.05): significantly affected by drug treatment
- ASR versus ctrl ([5]; all doses (0.2, 1, 5 mg/kg s. c.), 15 and 60 min onset, p < 0.001): strongly disrupted; also recorded: significantly diminished ASR; also recorded: strongly attenuates ASR
